Data: PMC6561471 (The Lancet. Oncology, 2018)
Entries after “also recorded” stand apart in the source; their conditions may differ.

Columns and labels:
[1] = suspension formulation compared with tablet; cited from earlier work
nasopharyngeal cancer = details: pazopanib tablet formulation 800 mg/day, monotherapy; cited from earlier work
[2] = tested on: patients with recurrent or metastatic HNSCC; experiment: adverse events graded by NCI-CTCAE version 4.0, all cycles of treatment
[3] = tested on: patients with recurrent or metastatic HNSCC; experiment: phase 1b dose escalation; format: in vivo; details: with fixed dose of cetuximab; doses 200-800 mg/day; assessed in cycle 1
[4] = tested on: recurrent or metastatic HNSCC; details: first-line treatment; cited from earlier work
[5] = tested on: recurrent or metastatic HNSCC; details: single-arm study; cited from earlier work

In the case of Cc1ccc(Nc2nccc(N(C)c3ccc4c(C)n(C)nc4c3)n2)cc1S(N)(=O)=O [pazopanib], the “decrease of time taken to reach Cmax (Tmax)” value [1] is given as 50%, the “increase of area under the curve (AUC)(0–72 h)” value [1] is given as 33% and the “increase of maximum plasma concentration (Cmax)” value [1] is given as 29%. For the same compound, the “disease control, patients” value (nasopharyngeal cancer) was 55%, the “grade 4 adverse events attributable to pazopanib” value ([2]; all 31 patients) was “no grade 4 adverse events” and the “most common grade 3 adverse events attributable to pazopanib” value ([2]; all cycles) was “hypertension, anaemia, fatigue, hypoalbuminaemia, and venous thromboembolism; also recorded: hypertension, anaemia, fatigue, hypoalbuminaemia, neutropenia, and diarrhoea”. The “maximum tolerated dose of pazopanib” value [3] was “not reached”.

In the case of bevacizumab, the “effect of addition of bevacizumab to chemotherapy” value [4] is listed as “improvement of progression-free survival and overall survival”.

For CNC(=O)c1cc(Oc2ccc(NC(=O)Nc3ccc(Cl)c(C(F)(F)F)c3)cc2)ccn1 [sorafenib], the activity as monotherapy [5] is listed as “modest activity”.

In the case of CCN(CC)CCNC(=O)c1c(C)[nH]c(/C=C2\C(=O)Nc3ccc(F)cc32)c1C [sunitinib], the activity as monotherapy [5] is given as “modest activity”.
